“And” between values parts separate entries of the source, which are not always exact repeats. Equal entries are not always repeated. Inconclusive results and toxic doses are left out. Rule for the calls: active = survival T/C of 150% or more; inactive = T/C below 125% in these data.
Test system: P388 leukemia ip, CD2F1 mice, survival T/C
Assay: NCI In Vivo Anticancer Drug Screen. Data for tumor model P388 Leukemia (intraperitoneal) in CD2F1 (CDF1) mice
Conditions: endpoint: median survival time, higher = longer survival
Procedure, shortened: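 Mice carrying the transplanted tumor received test compound or vehicle. Survival was recorded in each group, and the value is the treated-group measurement divided by that of the vehicle-treated control group.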

[1] = dose: 100.0 mg/kg/injection, schedule: Q01DX009 (ip), vehicle: saline
[2] = dose: 200.0 mg/kg/injection, schedule: Q01DX009 (ip), vehicle: saline
[3] = dose: 25.0 mg/kg/injection, schedule: Q01DX009 (ip), vehicle: saline
[4] = dose: 50.0 mg/kg/injection, schedule: Q01DX009 (ip), vehicle: saline
[5] = dose: 50.0 mg/kg/injection, schedule: Q01DX009 (ip), vehicle: saline with Tween-80
[6] = dose: 100.0 mg/kg/injection, schedule: Q01DX009 (ip), vehicle: saline with Tween-80
[7] = dose: 200.0 mg/kg/injection, schedule: Q01DX009 (ip), vehicle: saline with Tween-80
[8] = dose: 60.0 mg/kg/injection, schedule: Q01DX005 (ip), vehicle: Klucel (hydroxypropylcellulose) (HPC)
[9] = dose: 120.0 mg/kg/injection, schedule: Q01DX005 (ip), vehicle: Klucel (hydroxypropylcellulose) (HPC)
[10] = dose: 240.0 mg/kg/injection, schedule: Q01DX005 (ip), vehicle: Klucel (hydroxypropylcellulose) (HPC)

Measured: T/C

CCOCCC(O)CC (stereo not drawn)
inactive: [1] 90 % of control | dose: 100.0 mg/kg/injection, schedule: Q04DX003 (ip), vehicle: saline 122 % of control | [2] 95 % of control | dose: 200.0 mg/kg/injection, schedule: Q04DX003 (ip), vehicle: saline 104 % of control | dose: 400.0 mg/kg/injection, schedule: Q01DX009 (ip), vehicle: saline 104 % of control

O=Cc1coc2ccccc2c1=O
inactive: [3] 120 % of control | [4] 110 % of control | [1] 119 % of control and 120 % of control

CN(C)C(=O)On1cc(Cl)cc1C#N
inactive: dose: 6.25 mg/kg/injection, schedule: Q04DX003 (ip), vehicle: Klucel (hydroxypropylcellulose) (HPC) 102 % of control | dose: 12.5 mg/kg/injection, schedule: Q04DX003 (ip), vehicle: Klucel (hydroxypropylcellulose) (HPC) 98 % of control | dose: 25.0 mg/kg/injection, schedule: Q04DX003 (ip), vehicle: Klucel (hydroxypropylcellulose) (HPC) 100 % of control | dose: 75.0 mg/kg/injection, schedule: Q04DX003 (ip), vehicle: Klucel (hydroxypropylcellulose) (HPC) 98 % of control

Cc1cc2nc(N)sc2cc1C
inactive: dose: 12.5 mg/kg/injection, schedule: Q01DX009 (ip), vehicle: saline 98 % of control | [3] 100 % of control | [4] 102 % of control | [1] 102 % of control

O=C(CC(O)(C(F)(F)F)C(F)(F)F)c1ccc(Cl)cc1
inactive: dose: 50.0 mg/kg/injection, schedule: Q04DX003 (ip), vehicle: saline with Tween-80 104 % of control | dose: 100.0 mg/kg/injection, schedule: Q04DX003 (ip), vehicle: saline with Tween-80 100 % of control | dose: 200.0 mg/kg/injection, schedule: Q04DX003 (ip), vehicle: saline with Tween-80 104 % of control

C=CC1=C(C)C(/C=c2/[nH]/c(=C\c3[nH]c(/C=C4/NC(=O)C(C)=C4C=C)c(C)c3CCC(=O)O)c(CCC(=O)O)c2C)=NC1=O
inactive: [5] 95 % of control | [6] 91 % of control | [7] 88 % of control

CC(=O)ON(C(C)=O)C1CCCCC1
inactive: [5] 100 % of control | [6] 97 % of control | [7] 98 % of control

CC1(C)COC(=O)C(C(=O)O)=C1C(=O)O
inactive: [5] 90 % of control | [6] 87 % of control | [7] 90 % of control

Cc1ccc2nc(CC(O)(c3ccccc3)c3ccccc3)ccc2c1
inactive: [5] 110 % of control | [6] 95 % of control | [7] 94 % of control

CCOc1nc(N)nc(C)c1N=Nc1ccc(C)cc1
inactive: dose: 60.0 mg/kg/injection, schedule: Q01DX005 (ip), vehicle: Klucel + Tween-80 110 % of control | dose: 120.0 mg/kg/injection, schedule: Q01DX005 (ip), vehicle: Klucel + Tween-80 116 % of control | dose: 240.0 mg/kg/injection, schedule: Q01DX005 (ip), vehicle: Klucel + Tween-80 113 % of control

NC(=O)c1cc(Br)ccc1[N+](=O)[O-]
inactive: [4] 97 % of control | [1] 97 % of control | [2] 87 % of control

CCCn1c(C)nc2c(N)cc(C)cc21
inactive: dose: 25.0 mg/kg/injection, schedule: Q01DX005 (ip), vehicle: Klucel (hydroxypropylcellulose) (HPC) 101 % of control | dose: 50.0 mg/kg/injection, schedule: Q01DX005 (ip), vehicle: Klucel (hydroxypropylcellulose) (HPC) 94 % of control | dose: 100.0 mg/kg/injection, schedule: Q01DX005 (ip), vehicle: Klucel (hydroxypropylcellulose) (HPC) 97 % of control

O=C(Nc1cccc2ccccc12)OCCN=Cc1ccccc1O.O=C(Nc1cccc2ccccc12)OCCN=Cc1ccccc1O.[Cu]
inactive: dose: 100.0 mg/kg/injection, schedule: Q04DX002 (ip), vehicle: saline with Tween-80 94 % of control | dose: 200.0 mg/kg/injection, schedule: Q04DX002 (ip), vehicle: saline with Tween-80 94 % of control | dose: 400.0 mg/kg/injection, schedule: Q04DX002 (ip), vehicle: saline with Tween-80 107 % of control and 94 % of control

CSC(SC)c1cc(C)no1
inactive: dose: 60.0 mg/kg/injection, schedule: Q01DX005 (ip), vehicle: saline with Tween-80 107 % of control | dose: 120.0 mg/kg/injection, schedule: Q01DX005 (ip), vehicle: saline with Tween-80 101 % of control | dose: 240.0 mg/kg/injection, schedule: Q01DX005 (ip), vehicle: saline with Tween-80 103 % of control

Cc1[nH]nc2c1NC(=O)OC2C (stereo not drawn)
inactive: dose: 50.0 mg/kg/injection, schedule: Q01DX005 (ip), vehicle: saline with Tween-80 108 % of control | dose: 100.0 mg/kg/injection, schedule: Q01DX005 (ip), vehicle: saline with Tween-80 99 % of control | dose: 200.0 mg/kg/injection, schedule: Q01DX005 (ip), vehicle: saline with Tween-80 101 % of control

CC(C)CSc1nc2ccc(NC(=O)/C=C/C(=O)O)cc2s1
inactive: dose: 50.0 mg/kg/injection, schedule: Q01DX009 (ip), vehicle: Klucel (hydroxypropylcellulose) (HPC) 95 % of control | dose: 100.0 mg/kg/injection, schedule: Q01DX009 (ip), vehicle: Klucel (hydroxypropylcellulose) (HPC) 95 % of control

O=C1NN=COc2ccccc21
inactive: [5] 106 % of control and 108 % of control and 93 % of control | [6] 100 % of control and 102 % of control and 105 % of control | [7] 106 % of control and 115 % of control and 121 % of control | dose: 400.0 mg/kg/injection, schedule: Q01DX009 (ip), vehicle: saline with Tween-80 110 % of control and 119 % of control

CCOc1c(N=Nc2ccc(Cl)cc2)c(C)nn1C(N)=S
inactive: [8] 112 % of control | [9] 112 % of control | [10] 112 % of control

CN(C)CC[CH2][Sn]([CH2]CCN(C)C)([CH2]CCN(C)C)[CH2]CCN(C)C
inactive: [5] 105 % of control | [6] 97 % of control

O=C(O)c1c[nH]c2cc(F)ccc2c1=O
inactive: [4] 103 % of control | [1] 95 % of control | [2] 96 % of control

OC(c1ccc(F)cc1)(C1CC1)C1CC1
inactive: dose: 100.0 mg/kg/injection, schedule: Q01DX001 (ip), vehicle: saline + alcohol 98 % of control | dose: 200.0 mg/kg/injection, schedule: Q01DX001 (ip), vehicle: saline + alcohol 99 % of control | dose: 400.0 mg/kg/injection, schedule: Q01DX001 (ip), vehicle: saline + alcohol 101 % of control

COc1cc(/C=N/n2c(-c3ccccc3)nc3ccccc3c2=O)cc(Br)c1O
inactive: [8] 89 % of control | [9] 87 % of control | [10] 87 % of control

CCOC1OCN(CCCN(C)C)CC1(C)C (stereo not drawn)
inactive: [5] 108 % of control | [6] 123 % of control | [7] 123 % of control

COc1nc(SC)c(C#N)c(=O)[nH]1
inactive: [4] 107 % of control | [1] 98 % of control | [2] 107 % of control

CC(=O)[O][Sn]([CH2]c1ccccc1)([CH2]c1ccccc1)[CH2]c1ccccc1
inactive: dose: 0.75 mg/kg/injection, schedule: Q01DX009 (ip), vehicle: saline 115 % of control | dose: 1.5 mg/kg/injection, schedule: Q01DX009 (ip), vehicle: saline 87 % of control | dose: 3.0 mg/kg/injection, schedule: Q01DX009 (ip), vehicle: saline 105 % of control | dose: 6.0 mg/kg/injection, schedule: Q01DX009 (ip), vehicle: saline 108 % of control

CCOc1cc2c(NCCCN(CCO)CCO)ncnc2c(OCC)c1OCC
inactive: [4] 101 % of control | [1] 111 % of control | [2] 101 % of control

CCN(CC)Cc1c(O)ccc(C(C)=O)c1O
inactive: dose: 50.0 mg/kg/injection, schedule: Q01DX005 (ip), vehicle: saline 89 % of control | dose: 100.0 mg/kg/injection, schedule: Q01DX005 (ip), vehicle: saline 100 % of control

COc1ccc2c(c1)CCC(Cc1ccc(Cl)cc1)C2c1ccc(OCCN2CCCC2)cc1 (stereo not drawn)
inactive: dose: 6.25 mg/kg/injection, schedule: Q01DX005 (ip), vehicle: suspension in saline 100 % of control | dose: 12.5 mg/kg/injection, schedule: Q01DX005 (ip), vehicle: suspension in saline 98 % of control | dose: 25.0 mg/kg/injection, schedule: Q01DX005 (ip), vehicle: suspension in saline 98 % of control | dose: 50.0 mg/kg/injection, schedule: Q01DX005 (ip), vehicle: suspension in saline 100 % of control

Source: PubChem BioAssay AID330 (DTP/NCI, 2004)
